In patent US20250051458A1, “Methods for Treating Neurodegeneration Targeting IGF1/IGF1R” (The Schepens Eye Research Institute, Inc., priority 2021, published 2025):
“Also recorded” adds a separate entry of the source.

How the values were obtained:
[1] = biological target: IGF-1R on mouse microglia (primary retinal and brain microglia, BV2 cell line) (mouse) (UniProt Q60751); assay: cell-based or functional assay
[2] = tested on: ischemic optic neuropathy in mice; assay: Mouse model of ischemic optic neuropathy, intravitreal injection; type: in vivo; details: intravitreal injections at days 1, 8 and 17 post injury; 4 weeks after induction
Source text: FIG. 9. Rescue of RGC function and vision by intravitreal injection of IGF1R agonist in a mouse model of ischemic optic neuropathy. Quantifications of electroretinogram positive scotopic threshold response (pSTR) amplitudes, visual acuity and contrast sensitivity before (Baseline) and at 4 weeks (4 wks) after induction of ischemic optic neuropathy in mice received intravitreal injections of control or RG5 IGF1R agonist at day 1, 8 and 17 post injury. Error bar=SEM. *P<0.05 by one way ANOVA.
The adult mice were dark adapted in a dark adaptation chamber overnight before conducting ERG. […] The pSTR was measured from the baseline to the peak of the positive deflection. […]
The mouse was placed on a small platform in the middle of the optomotor chamber. […] The contrast at a given spatial frequency is calculated using the formula (Lmax−Lmin)/(Lmax+Lmin) where Lmax is the brightness (in cd/m^2) of the white stripe, and Lmin is the brightness of the black stripe (in cd/m^2). Contrast level, stripe width, grating speed, and direction of stripe movement (clockwise vs. counterclockwise) were measured. According to the tracking of head movements on the mouse to the moving stripes, the visual acuity and contrast sensitivity can be measured. […] By changing the stripe width and the contrast, visual acuity and contrast sensitivity of mice can be assessed. […]

[3] = tested on: human microglial cell line; assay: qPCR of IL-6 induction in LPS+ATP-stimulated human microglial cell line (IGF1R agonist / IGF1 antibody screen); type: cell-based; details: treatment 6 hours after LPS+ATP; compared with various IGF1 antibodies
Method: FIG. 8. Screening for anti-human IGF1 agonist antibody with a counter-inflammatory effect on microglial activation. Result of qPCR measuring levels of pro-inflammatory cytokine IL-6 induction in human microglial cell line that were stimulated by LPS and ATP (LPS+ATP) followed by treatment with IGF1R agonist Rg5 or various IGF1 antibodies 6 hours after LTP+ATP administration. […] Error bar=SEM. *P<0.05 by one way ANOVA.
qPCR was used to measure levels of pro-inflammatory cytokine IL-6 induction in a human microglial cell line stimulated by LPS and ATP (LPS+ATP) followed by treatment with IGF1R agonist Rg5 or various IGF1 antibodies 6 hours after LTP+ATP administration.

Sequence of UniProt Q60751 (Q60751 31-1373): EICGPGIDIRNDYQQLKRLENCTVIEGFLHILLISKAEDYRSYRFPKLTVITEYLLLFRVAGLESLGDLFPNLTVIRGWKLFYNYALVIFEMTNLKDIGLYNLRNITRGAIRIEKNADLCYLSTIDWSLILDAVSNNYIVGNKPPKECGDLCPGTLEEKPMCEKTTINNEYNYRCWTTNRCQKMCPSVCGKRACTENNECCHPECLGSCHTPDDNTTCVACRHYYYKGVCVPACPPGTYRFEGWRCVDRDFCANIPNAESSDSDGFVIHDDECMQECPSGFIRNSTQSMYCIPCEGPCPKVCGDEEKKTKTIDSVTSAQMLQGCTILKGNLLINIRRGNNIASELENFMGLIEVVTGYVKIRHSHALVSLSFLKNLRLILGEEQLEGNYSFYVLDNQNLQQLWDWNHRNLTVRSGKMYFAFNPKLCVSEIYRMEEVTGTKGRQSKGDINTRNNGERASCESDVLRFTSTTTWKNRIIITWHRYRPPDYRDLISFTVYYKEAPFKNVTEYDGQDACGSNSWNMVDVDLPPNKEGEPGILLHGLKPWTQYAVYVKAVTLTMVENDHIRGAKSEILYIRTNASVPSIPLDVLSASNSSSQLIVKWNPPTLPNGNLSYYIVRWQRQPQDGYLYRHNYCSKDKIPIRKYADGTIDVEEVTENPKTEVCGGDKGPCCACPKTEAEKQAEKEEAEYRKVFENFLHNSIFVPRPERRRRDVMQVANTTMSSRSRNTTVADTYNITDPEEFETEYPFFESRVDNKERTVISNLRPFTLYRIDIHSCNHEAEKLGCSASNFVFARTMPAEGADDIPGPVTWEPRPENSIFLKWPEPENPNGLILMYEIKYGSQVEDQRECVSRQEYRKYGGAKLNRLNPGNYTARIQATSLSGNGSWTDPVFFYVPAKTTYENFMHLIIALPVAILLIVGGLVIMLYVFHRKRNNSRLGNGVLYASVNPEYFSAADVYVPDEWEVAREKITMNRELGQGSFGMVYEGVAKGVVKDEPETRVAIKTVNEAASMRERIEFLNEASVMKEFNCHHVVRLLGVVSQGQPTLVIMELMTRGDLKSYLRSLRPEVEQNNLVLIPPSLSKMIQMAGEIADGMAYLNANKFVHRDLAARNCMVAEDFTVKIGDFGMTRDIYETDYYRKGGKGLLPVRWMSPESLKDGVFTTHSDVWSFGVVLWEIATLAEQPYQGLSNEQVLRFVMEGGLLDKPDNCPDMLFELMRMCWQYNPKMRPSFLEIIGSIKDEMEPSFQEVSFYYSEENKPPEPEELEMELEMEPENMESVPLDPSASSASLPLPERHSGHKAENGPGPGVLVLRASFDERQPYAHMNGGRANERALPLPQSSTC

With “insulin-like growth factor binding protein like protein 1 (IGFBPL1), recombinant (R&D system, 4130-BL) (from UniProt Q80W15 18-270) (ligand)” as the molecule, how does the PI3K phosphorylation (Western blot, BV2 microglia) [1] read?
The PI3K phosphorylation (Western blot, BV2 microglia) was 8 fold.

CC(C)=CC/C=C(\C)[C@H]1CC[C@]2(C)[C@@H]1[C@H](O)C[C@@H]1[C@@]3(C)CC[C@H](O[C@@H]4O[C@H](CO)[C@@H](O)[C@H](O)[C@H]4O[C@@H]4O[C@H](CO)[C@@H](O)[C@H](O)[C@H]4O)C(C)(C)[C@@H]3CC[C@]12C [Rg5, ginsenoside RG5] was tested. Which “RGC function (pSTR amplitudes) and vision (visual acuity, contrast sensitivity)” value [2] did it give?
The value was “protects RGC function and vision against ischemic optic neuropathy-induced functional loss”.

What about the “Anti-inflammatory effect on IL-6 induction (qPCR)” value [3] of the same molecule?
The value was “largest anti-inflammatory effect; also recorded: greatest anti-inflammatory effect”.
